Read-outs that look alike come from different tables or passages of the source.
Experiments:
Pancreatic lipase (PL) = molecular target: T1, Pancreatic lipase (PL) (Sus scrofa, UniProt P00591); experiment: Inhibition of PL-mediated 4-MUO hydrolysis; format: biochemical; settings: 4-MUO substrate, mean ± SD (n = 3)
T1 construct: purchased Sigma Aldrich type II, Lot.SLBN9099V
T1 sequence (P00591 1-450): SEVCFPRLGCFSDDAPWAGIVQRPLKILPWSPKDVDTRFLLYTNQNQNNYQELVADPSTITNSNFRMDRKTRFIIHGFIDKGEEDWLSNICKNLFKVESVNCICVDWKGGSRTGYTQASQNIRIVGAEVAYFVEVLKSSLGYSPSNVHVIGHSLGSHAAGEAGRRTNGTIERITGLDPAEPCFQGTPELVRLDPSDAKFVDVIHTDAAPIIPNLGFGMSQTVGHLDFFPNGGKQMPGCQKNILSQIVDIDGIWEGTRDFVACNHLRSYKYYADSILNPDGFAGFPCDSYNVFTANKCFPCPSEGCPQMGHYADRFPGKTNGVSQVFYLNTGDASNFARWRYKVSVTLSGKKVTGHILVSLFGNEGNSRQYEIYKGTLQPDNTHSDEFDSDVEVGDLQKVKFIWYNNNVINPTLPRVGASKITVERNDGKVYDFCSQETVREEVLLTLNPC
Description: In addition, the background fluorescence in the absence of an enzyme source (PL) (add the same amount of citrate-Na2HPO4 buffer) was measured. […] Then start the reaction by adding 2 µL of 4-MUO probe (3 µM, final concentration). The fluorescence signal of 4-MU (hydrolytic metabolite) was detected by multi-mode microplate reader (SpectraMax M4, Molecular Devices, Urstein, Austria) with continuous oscillation for 20 min and recorded and analysed at 60 s intervals. The excitation wavelength and emission wavelength of 4-MU were set at 340 nm and 460 nm, respectively, and the gain value was 500.
(§1) Subsequently, various concentrations of substrates (selected according to Km) and different concentrations of inhibitors were used to determine the corresponding reaction rate, and the second slope graph of the Lineweaver–Burk diagram was used as a function of the inhibitor to calculate the corresponding inhibition constant (Ki) value. All kinetic data were fitted by the following kinetic equations (a–c), for competitive (a), non-competitive (b) and mixed inhibition (c): (a) V=(VmaxS)/[Km(1+I/Ki)+S] (b) V=(VmaxS)/[(Km+S)×(1+I/Ki)] (c) V=(VmaxS)/[(Km+S)×(1+I/αKi)] where V is the hydrolytic velocity of the reaction, Vmax is the maximum velocity. S and I are substrate (4-MUO, NLMe) and inhibitor (compound 39/41) concentrations, respectively. Ki is the inhibition constant of the tested inhibitor against the target PL and hCES1A; Km is the Michaelis constant (the substrate concentration at half of the Vmax).
All measurements were made in triplicate and the data obtained in the experiment were shown as mean ± SD.

hCES1A = molecular target: T2, hCES1A (Homo sapiens, UniProt P23141); experiment: Inhibition of hCES1A-mediated NLMe hydrolysis in human liver microsomes; format: biochemical
T2 construct: tissue Bioreclamation IVT lot No. X008067; host or cells: pooled human liver microsomes from 50 donors
T2 sequence (P23141 18-567): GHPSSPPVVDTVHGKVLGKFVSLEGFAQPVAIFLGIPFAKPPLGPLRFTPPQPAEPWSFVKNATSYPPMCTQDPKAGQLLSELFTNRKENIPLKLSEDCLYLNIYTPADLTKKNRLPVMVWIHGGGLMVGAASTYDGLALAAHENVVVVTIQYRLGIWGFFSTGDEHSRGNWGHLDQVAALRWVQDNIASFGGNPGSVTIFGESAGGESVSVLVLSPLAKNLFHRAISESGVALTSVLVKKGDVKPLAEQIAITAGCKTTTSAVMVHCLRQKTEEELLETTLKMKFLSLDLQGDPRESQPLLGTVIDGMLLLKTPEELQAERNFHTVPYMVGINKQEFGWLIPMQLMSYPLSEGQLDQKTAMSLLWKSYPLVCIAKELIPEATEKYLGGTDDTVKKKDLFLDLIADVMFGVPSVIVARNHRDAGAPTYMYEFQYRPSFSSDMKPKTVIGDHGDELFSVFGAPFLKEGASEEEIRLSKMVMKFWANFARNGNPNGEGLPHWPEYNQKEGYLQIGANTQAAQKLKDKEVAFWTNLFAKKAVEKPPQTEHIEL
Description: N-Alkylated D-luciferin methyl ester (NLMe), a Specific probe for hCES1A[45], was used for assessing the inhibitory effects for triterpenoids, and BNPP was used as a positive inhibitor of hCES1A. […] Then NLMe (2 µL, 0.15 mM) was added to start the reaction. After shaking the reaction in 37 °C incubator for 10 min, 50 µL of reaction solution was removed and mixed with LDR (50 µL) to terminate the reaction. A multi-mode microplate reader was used to detect the luminescence signal of NL (the hydrolysed metabolite of NLMe). The luminescence product of NL was measured at 580 nm (gain: 140). The final volume ratio of DMSO was less than 1% (V/V).
as §1
All measurements were made in triplicate and the data obtained in the experiment were shown as mean ± SD. The IC50 and Ki values of the compounds with strong inhibitory effect were evaluated by nonlinear regression with graphpad prism 7.0 software (GraphPad Software, Inc., La Jolla, CA).

[1] = NLMe substrate, HLM, mean ± SD (n = 3), read-out: IC50 (µM) hCES1A

SMILES | IC50 (Pancreatic lipase (PL)) [µM] | IC50 (hCES1A; [1]) [µM] | IC50 (hCES1A) [µM]
CC(C)=CCC=C(C)C1CCC2(C)C1C(O)CC1C3(C)CCC(O)C(C)(C)C3C(OC3OC(CO)C(O)C(O)C3OC3OC(C)C(O)C(O)C3O)CC12C (centres unmarked) [Compound 19] | 74.5 ± 28.4 |  | 
C=C(CC[C@@H](C(=O)O)[C@H]1[C@H](O)C[C@@]2(C)C3=C(CC[C@]12C)[C@@]1(C)CC[C@H](OC(C)=O)C(C)(C)[C@@H]1CC3)C(C)C [Compound 16, pachymic acid] | > 100 |  | 
CC1(C)CCC2(C(=O)O)CCC3(C)C(=CCC4C5(C)CCC(=O)C(C)(C)C5CCC43C)C2C1 (centres unmarked) [Compound 30] | 7.51 ± 1.08 | 0.047 ± 0.003 | 
CC1(C)CCC2(C(N)=O)CCC3(C)C(=CCC4C5(C)CCC(O)C(C)(C)C5CCC43C)C2C1 (centres unmarked) [Compound 38] | 7.83 ± 1.21 | 0.48 ± 0.06 | 
C[C@H]1[C@H](C)CC[C@]2(C(=O)O)CC[C@]3(C)C(=CC[C@@H]4[C@@]5(C)C[C@@H](O)[C@H](O)C(C)(C)[C@@H]5CC[C@]43C)[C@H]12 [Compound 6, corosolic acid] | 12.8 ± 1.44 |  | 0.34 ± 0.04
CC1(C)CC[C@]2(C(=O)O[C@@H]3O[C@H](CO)[C@@H](O)[C@H](O)[C@H]3O)CC[C@]3(C)C(=CC[C@@H]4[C@@]5(C)CC[C@H](O[C@@H]6O[C@H](C(=O)O)[C@@H](O)[C@H](O)[C@H]6O[C@@H]6O[C@H](CO)[C@@H](O)[C@H](O)[C@H]6O)C(C)(C)[C@@H]5CC[C@]43C)[C@@H]2C1 [Compound 26] | > 100 |  | 
CC1(C)CC[C@]2(C(=O)O)CC[C@]3(C)C(=CC[C@@H]4[C@@]5(C)C[C@@H](O)[C@H](O)C(C)(C)[C@@H]5CC[C@]43C)[C@@H]2C1 [Compound 2, maslinic acid] | 16 ± 4.59 |  | 0.12 ± 0.01
CC1CCC2(C(=O)O)CCC3(C)C(=CCC4C5(C)CCC(OC(=O)CCC(=O)O)C(C)(C)C5CCC43C)C2C1C (centres unmarked) [Compound 42] | 20.9 ± 1.78 |  | 0.028 ± 0.003
CCCC(=O)OC1CCC2(C)C(CCC3(C)C2CC=C2C4CC(C)(C)CCC4(C(=O)O)CCC23C)C1(C)C (centres unmarked) [Compound 34] | > 100 | 0.24 ± 0.049 | 
CC(C)=CCC[C@](C)(O[C@@H]1O[C@H](CO)[C@@H](O)[C@H](O)[C@H]1O)[C@H]1CC[C@]2(C)[C@@H]1[C@H](O)C[C@@H]1[C@@]3(C)CC[C@H](O)C(C)(C)[C@@H]3[C@@H](O[C@@H]3O[C@H](CO)[C@@H](O)[C@H](O)[C@H]3O[C@@H]3O[C@@H](C)[C@H](O)[C@@H](O)[C@H]3O)C[C@]12C [Compound 21] | > 100 |  | 
CC(C)=CCC[C@](C)(O)[C@H]1CC[C@]2(C)[C@@H]1[C@H](O)C[C@@H]1[C@@]3(C)CC[C@H](O)C(C)(C)[C@@H]3[C@@H](O[C@@H]3O[C@H](CO)[C@@H](O)[C@H](O)[C@H]3O[C@@H]3O[C@@H](C)[C@H](O)[C@@H](O)[C@H]3O)C[C@]12C [Compound 23] | > 100 |  | 
CC(C)=CCC[C@](C)(O[C@@H]1O[C@H](CO)[C@@H](O)[C@H](O)[C@H]1O)[C@H]1CC[C@]2(C)[C@@H]1[C@H](O)C[C@@H]1[C@@]3(C)CC[C@H](O)C(C)(C)[C@@H]3[C@@H](O)C[C@]12C [Compound 18] | > 100 |  | 
CC(C)=CCCC(C)(OC1OC(CO)C(O)C(O)C1O)C1CCC2(C)C1C(O)CC1C3(C)CCC(O)C(C)(C)C3C(OC3OC(CO)C(O)C(O)C3OC3OC(CO)C(O)C(O)C3O)CC12C (centres unmarked) [Compound 20] | 29.7 ± 5.02 |  | 
CC(C)=CCC[C@](C)(O[C@@H]1O[C@H](CO)[C@@H](O)[C@H](O)[C@H]1O)[C@H]1CC[C@]2(C)[C@@H]1[C@H](O)C[C@@H]1[C@@]3(C)CC[C@H](O)C(C)(C)[C@@H]3[C@@H](O[C@@H]3O[C@H](CO)[C@@H](O)[C@H](O)[C@H]3O)C[C@]12C [Compound 22] | > 100 |  | 
C=C(C)[C@@H]1CC[C@]2(C(=O)O)CC[C@]3(C)[C@H](CC[C@@H]4[C@@]5(C)CC[C@H](O)C(C)(C)[C@@H]5CC[C@]43C)[C@@H]12 [Compound 14] | > 100 |  | 
CC1CCC2(C(=O)O)CCC3(C)C(=CCC4C5(C)CCC(=O)C(C)(C)C5CCC43C)C2C1C (centres unmarked) [Compound 40] | 6.94 ± 1.37 | 0.93 ± 0.18 | 
CC1(C)CC[C@]2(C(=O)O)[C@H](O)C[C@]3(C)C(=CC[C@@H]4[C@@]5(C)C[C@@H](O)[C@H](O)[C@@](C)(CO)[C@@H]5CC[C@]43C)[C@@H]2C1 [Compound 4, polygalacic acid] | > 100 |  | 
COC(=O)C12CCC(C)(C)CC1C1=CCC3C4(C)CCC(O)C(C)(C)C4CCC3(C)C1(C)CC2 (centres unmarked) [Compound 36] | 30.6 ± 3.58 | 0.856 ± 0.15 | 
CCCCCCCCCCC[C@@H](C[C@@H]1OC(=O)[C@H]1CCCCCC)OC(=O)[C@H](CC(C)C)NC=O [Compound 28, Orlistat, reference compound] |  | 0.035 ± 0.003 | 
C=C(C)[C@@H]1CC[C@]2(C)CC[C@]3(C)[C@H](CC[C@@H]4[C@@]5(C)CC[C@H](O)C(C)(C)[C@@H]5CC[C@]43C)[C@@H]12 [Compound 15] | > 100 |  | 
CC(C)=CC/C=C(\C)[C@H]1CC[C@]2(C)[C@@H]1[C@H](O)C[C@@H]1[C@@]3(C)CC[C@H](O)C(C)(C)[C@@H]3[C@@H](O[C@@H]3O[C@H](CO)[C@@H](O)[C@H](O)[C@H]3O)C[C@]12C [Compound 25] | > 100 |  | 
CC(C)=CCC[C@](C)(O[C@@H]1O[C@H](CO)[C@@H](O)[C@H](O)[C@H]1O)[C@H]1CC[C@]2(C)[C@@H]1[C@H](O)C[C@@H]1[C@@]3(C)CC[C@H](O)C(C)(C)[C@@H]3[C@@H](O[C@@H]3O[C@H](CO)[C@@H](O)[C@H](O)[C@H]3O[C@@H]3OC[C@@H](O)[C@H](O)[C@H]3O)C[C@]12C [Compound 27] | > 100 |  | 
CC1(C)[C@@H](O)CC[C@]2(C)[C@H]3C(=O)C=C4[C@@H]5C[C@@](C)(C(=O)O)CC[C@]5(C)CC[C@@]4(C)[C@]3(C)CC[C@@H]12 [Compound 9, glycyrrhetic acid] | 28.3 ± 9.47 |  | 
CC(C)=CCC[C@](C)(O)[C@H]1CC[C@]2(C)[C@@H]1[C@H](O)C[C@@H]1[C@@]3(C)CC[C@H](O)C(C)(C)[C@@H]3[C@@H](O[C@@H]3O[C@H](CO)[C@@H](O)[C@H](O)[C@H]3O)C[C@]12C [Compound 24] | > 100 |  | 
C=C(C)[C@@H]1CC[C@]2(C=O)CC[C@]3(C)[C@H](CC[C@@H]4[C@@]5(C)CC[C@H](O)C(C)(C)[C@@H]5CC[C@]43C)[C@@H]12 [Compound 13] | > 100 |  | 
CC1(C)[C@@H](O[C@H]2O[C@H](C(=O)O)[C@@H](O)[C@H](O)[C@H]2O[C@@H]2O[C@H](C(=O)O)[C@@H](O)[C@H](O)[C@H]2O)CC[C@]2(C)[C@H]3C(=O)C=C4[C@@H]5C[C@@](C)(C(=O)O)CC[C@]5(C)CC[C@@]4(C)[C@]3(C)CC[C@@H]12 [Compound 10, glycyrrhizic acid] | > 100 |  | 
CC(CC(=O)C[C@@H](C)[C@H]1CC(=O)[C@@]2(C)C3=C(C(=O)C[C@]12C)[C@@]1(C)CC[C@H](O)C(C)(C)[C@@H]1C[C@@H]3O)C(=O)O (some centres unmarked) [Compound 17, ganoderic acid B] | > 100 |  | 

From paper PMC8812735, “Discovery of triterpenoids as potent dual inhibitors of pancreatic lipase and human carboxylesterase 1” (Journal of Enzyme Inhibition and Medicinal Chemistry, 2022)
